Data as given in patent US20240228487A1, “FUSED HETEROCYCLIC COMPOUND AND APPLICATION THEREOF, PHARMACEUTICAL COMPOSITIONS CONTAINING SAME AND APPLICATION THEREOF” (ZHEJIANG UNIVERSITY, priority 2021, published 2024).
Structures can show the parent of a compound that is named as a salt.

Biological target: T1, human TRPM2 channels (Homo sapiens, UniProt O94759)
T1 construct: expressed in transfected cells
Experiment: whole cell patch clamp, inhibition of TRPM2 channel current
Assay type: cell-based
Settings: HEK293 cells stably expressing human TRPM2, 500 μM ADPR
Protocol: The fused heterocyclic compound of the present invention has an inhibitory effect on the TRPM2 channel, and its pharmacological activity is measured using whole cell patch clamp technology, the corresponding steps are as follows: Incubating HEK293 cells stably expressing human TRPM2 channels in DMEM/F-12 medium containing 10% bovine serum, 50 units/mL of penicillin and […] of streptomycin under the condition of 5% CO2 and 37° C. The cells before testing are stored in the extracellular fluid (147 mM NaCl, 2 mM KCl, 1 mM MgCl2, 2 mM CaCl2, 10 mM HEPES, 13 mM glucose, pH 7.4). The electrode is filled with the electrode internal solution (147 mM NaCl, 0.05 mM EGTA, 1 mM MgCl2, 10 mM HEPES, 0.5 mM ADPR, pH=7.3), and the resistance is maintained at 3-5 M Ω. Administering ADPR into cells through electrodes, and detecting the ADPR concentration used to activate TRPM2 as 500 μM, when detecting a stable current, perfusing the corresponding concentration of fused heterocyclic compound II-1 into the extracellular fluid for at least 60 seconds. record the change in current magnitude using voltage ramp mode, changing the voltage from −100 mV to+100 mV within 500 ms, with a normal clamp voltage of 0 mV and a TRPM every 5 seconds; finally, replacing the extracellular fluid with a solution with pH=5.0 to block the TRPM2 current, the electrophysiological current test results obtained are shown in Table 1, and the electrophysiological current graph obtained is shown in FIG. 1. Similarly, administering corresponding concentrations of other fused heterocyclic compounds (II-2˜II-54, III-1˜III-11) into the extracellular fluid, taking electrophysiological tests using the same method, the results are shown in Table 1. The electrophysiological representative current graphs of some fused heterocyclic compounds (II-9, II-19, and II-36) inhibiting TRPM2 channel current are shown in FIG. 1.

T1 sequence (O94759 whole entry): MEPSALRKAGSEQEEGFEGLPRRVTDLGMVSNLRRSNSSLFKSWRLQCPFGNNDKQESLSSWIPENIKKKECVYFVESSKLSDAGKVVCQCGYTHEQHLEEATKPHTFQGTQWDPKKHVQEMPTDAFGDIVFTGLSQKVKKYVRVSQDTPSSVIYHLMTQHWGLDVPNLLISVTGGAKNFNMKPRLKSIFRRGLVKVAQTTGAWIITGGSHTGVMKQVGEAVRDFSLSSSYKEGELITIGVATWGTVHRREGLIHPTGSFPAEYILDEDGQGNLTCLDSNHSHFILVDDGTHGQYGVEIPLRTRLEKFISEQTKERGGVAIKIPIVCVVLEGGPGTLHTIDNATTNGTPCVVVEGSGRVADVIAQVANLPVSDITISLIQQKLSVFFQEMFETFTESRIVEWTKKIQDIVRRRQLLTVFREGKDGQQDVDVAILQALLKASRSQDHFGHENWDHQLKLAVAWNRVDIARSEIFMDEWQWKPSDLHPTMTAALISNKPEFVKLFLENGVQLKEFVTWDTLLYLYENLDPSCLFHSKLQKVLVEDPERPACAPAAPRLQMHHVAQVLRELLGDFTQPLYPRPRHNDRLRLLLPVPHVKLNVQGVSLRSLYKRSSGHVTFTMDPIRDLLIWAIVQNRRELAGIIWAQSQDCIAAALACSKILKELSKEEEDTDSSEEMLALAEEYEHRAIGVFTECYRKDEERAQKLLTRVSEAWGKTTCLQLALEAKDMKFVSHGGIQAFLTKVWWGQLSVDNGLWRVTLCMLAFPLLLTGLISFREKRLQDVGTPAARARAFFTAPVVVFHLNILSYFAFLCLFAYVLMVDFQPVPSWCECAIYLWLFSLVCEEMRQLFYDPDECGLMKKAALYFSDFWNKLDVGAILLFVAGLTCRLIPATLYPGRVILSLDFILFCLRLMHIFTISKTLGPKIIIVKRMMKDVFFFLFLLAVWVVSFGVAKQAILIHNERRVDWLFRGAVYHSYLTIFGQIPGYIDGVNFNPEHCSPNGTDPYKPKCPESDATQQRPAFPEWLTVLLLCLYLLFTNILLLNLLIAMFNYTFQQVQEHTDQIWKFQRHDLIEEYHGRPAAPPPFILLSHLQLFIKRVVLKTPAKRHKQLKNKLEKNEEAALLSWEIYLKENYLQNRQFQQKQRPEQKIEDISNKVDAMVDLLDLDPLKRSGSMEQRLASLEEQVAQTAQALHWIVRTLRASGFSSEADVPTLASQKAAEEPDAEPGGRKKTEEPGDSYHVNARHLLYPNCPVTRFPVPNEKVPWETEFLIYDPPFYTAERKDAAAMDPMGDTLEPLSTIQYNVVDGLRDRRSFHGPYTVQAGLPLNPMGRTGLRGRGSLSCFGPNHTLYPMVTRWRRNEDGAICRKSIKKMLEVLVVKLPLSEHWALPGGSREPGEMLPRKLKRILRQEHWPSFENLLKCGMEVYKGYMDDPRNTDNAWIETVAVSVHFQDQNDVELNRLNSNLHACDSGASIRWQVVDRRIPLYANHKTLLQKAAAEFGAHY

Row | IC50 [µM] | Compound
1 | 20 to 50 | 5-((octanyloxy) (phenyl) methyl) indolizine-7-ethyl carboxylate [II-49]
2 | 1 to 10 | CCCOC(=O)c1cc(C(=O)c2ccccc2)n2cccc2c1 [II-2, 5-benzoimide 7-carboxypropyl ester]
3 | 10 to 20 | CC(=O)c1cc(C(=O)c2ccccc2)n2cccc2c1 [II-3, 1-(5-Benzimide-7-yl) ethane-1-ketone]
4 | 10 to 20 | COC(=O)c1cc(C(=O)c2ccc(F)cc2)n2cccc2c1 [II-4, 5-(4-Fluorobenzoyl) indolizine-7-methyl carboxylate]
5 | 10 to 20 | CCOC(=O)c1cc(C(=O)c2ccc(F)cc2)n2cccc2c1 [II-5, 5-(4-fluorobenzoyl) indolizinee-7-ethyl carboxylate]
6 | 1 to 10 | COC(=O)c1cc(C(=O)c2cccc(F)c2)n2cccc2c1 [II-6, 5-(3-Fluorobenzoyl)indolizine-7-methyl carboxylate]
7 | 1 to 10 | CCOC(=O)c1cc(C(=O)c2cccc(F)c2)n2cccc2c1 [II-7, 5-(3-fluorobenzoyl)indolizine-7-ethyl carboxylate]
8 | 1 to 10 | COC(=O)c1cc(C(=O)c2ccccc2F)n2cccc2c1 [II-8, 5-(2-Fluorobenzoyl) indolizine-7-methyl carboxylate]
9 | 1 to 10 | CCOC(=O)c1cc(C(=O)c2cccc(Cl)c2)n2cccc2c1 [II-9, 5-(3-chlorobenzoyl) indolizine-7-ethyl carboxylate]
10 | 1 to 10 | CCOC(=O)c1cc(C(=O)c2cccc(Br)c2)n2cccc2c1 [II-10, 5-(3-bromobenzoyl) indolizine-7-Ethyl carboxylate]
11 | 1 to 10 | CCOC(=O)c1cc(C(=O)c2cccc(C)c2)n2cccc2c1 [II-11, 5-(3-methylbenzoyl) indolizine-7-Ethyl carboxylate]
12 | 10 to 20 | CCOC(=O)c1cc(C(=O)c2cccc(OC)c2)n2cccc2c1 [II-12, Ethyl 5-(3-methoxybenzoyl) indolizine-7-carboxylate]
13 | 1 to 10 | COC(=O)c1cc(C(=O)c2ccco2)n2cccc2c1 [II-13, 5-(furan-2-carbonyl) indolizine-7-methyl carboxylate]
14 | 1 to 10 | CCOC(=O)c1cc(C(=O)c2ccco2)n2cccc2c1 [II-14, 5-(furan-2-carbonyl) indolizine-7-ethyl carboxylate]
15 | 10 to 20 | COC(=O)c1cc(C(=O)c2cccs2)n2cccc2c1 [II-15, 5-(thiophen-2-carbonyl)indolizine-7-methyl carboxylate]
16 | 1 to 10 | CCOC(=O)c1cc(C(=O)c2cccs2)n2cccc2c1 [II-16, 5-(thiophen-2-carbonyl) indolizine-7-ethyl carboxylate]
17 | 1 to 10 | COC(=O)c1cc(C(=O)c2ccccn2)n2cccc2c1 [II-17, 5-methylpyridinimide-7-methyl carboxylate]
18 | 1 to 10 | CCOC(=O)c1cc(C(=O)c2ccccn2)n2cccc2c1 [II-18, 5-methylpyridinimide-7-ethyl carboxylate]
19 | 10 to 20 | O=C(O)c1cc(C(=O)c2ccccc2)n2cccc2c1 [II-19, 5-benzimide-7-carboxylic acid]
20 | 10 to 20 | NC(=O)c1cc(C(=O)c2ccccc2)n2cccc2c1 [II-20, 5-benzimide-7-formamide]
21 | 10 to 20 | CCNC(=O)c1cc(C(=O)c2ccccc2)n2cccc2c1 [II-21, 5-benzoyl-N-ethylindolizine-7-formamide]
22 | 10 to 20 | CN(C)C(=O)c1cc(C(=O)c2ccccc2)n2cccc2c1 [II-22, 5-benzoyl-N, N-dimethylindolizine-7-formamide]
23 | 1 to 10 | CCN(C)C(=O)c1cc(C(=O)c2ccccc2)n2cccc2c1 [II-24, 5-Benzoyl-N-ethyl-N-methylindolizine-7-formamide]
24 | 1 to 10 | CON(C)C(=O)c1cc(C(=O)c2ccccc2)n2cccc2c1 [II-25, 5-Benzoyl-N-methoxy-N-methylindolizine-7-formamide]
25 | 1 to 10 | O=C(c1ccccc1)c1cc(C(=O)N2CCC2)cc2cccn12 [II-26, azetidine-1-yl (5-benzoimide 7-yl) ketone]
26 | 10 to 20 | O=C(c1ccccc1)c1cc(C(=O)N2CCCC2)cc2cccn12 [II-27, (5-benzoimide 7-yl) (pyrrolidine-1-yl) ketone]
27 | 10 to 20 | O=C(c1ccccc1)c1cc(C(=O)N2CCCCC2)cc2cccn12 [II-28, (5-benzimide 7-yl) (piperidin-1-yl) ketone]
28 | 20 to 50 | O=C(c1ccccc1)c1cc(C(=O)N2CCNCC2)cc2cccn12 [II-29, (5-benzoyl indolizine-7-yl) (piperazin-1-yl) ketone]

Row | IC50 [µM] | Compound
29 | 20 to 50 | O=C(c1ccccc1)c1cc(C(=O)N2CCOCC2)cc2cccn12 [II-30, (5-benzimide-7-yl) (morphyryl) ketone]
30 | 10 to 20 | CN1CCN(C(=O)c2cc(C(=O)c3ccccc3)n3cccc3c2)CC1 [II-31, (5-Benzimide-7-yl) (4-methylpiperazin-1-yl) ketone]
31 | 10 to 20 | CCN(CC)C(=O)c1cc(C(=O)c2ccccc2F)n2cccc2c1 [II-32, N, N-Diethyl-5-(2-fluorobenzoyl) indolizine-7-formamide]
32 | 10 to 20 | O=C(c1ccccc1F)c1cc(C(=O)N2CCCC2)cc2cccn12 [II-33, (5-(2-fluorobenzoyl)indolizine-7-yl) (pyrrolidine-1-yl) ketone]
33 | 1 to 10 | CCN(CC)C(=O)c1cc(C(=O)c2ccccn2)n2cccc2c1 [II-34, N, N-Diethyl-5-pyridylimide-7-formamide]
34 | 10 to 20 | O=C(c1ccccn1)c1cc(C(=O)N2CCCC2)cc2cccn12 [II-35]
35 | 20 to 50 | O=C(c1ccccn1)c1cc(C(=O)N2CCNCC2)cc2cccn12 [II-36, (5-Pyridinyllin-2-yl) (Piperazin-1-yl) Methylketone]
36 | 10 to 20 | O=C(c1ccccc1)c1cc(C(=O)N2CCNCC2)cc2cccn12 [II-37, (5-Benzimide-7-yl) (piperazin-1-yl) ketone hydrochloride]
37 | 20 to 50 | CCN(CC)C(=O)c1cc(C(=O)c2ccccn2)n2cccc2c1 [II-38, N,N-Diethyl-5-pyridylimide-7-formamide hydrochloride]
38 | 10 to 20 | O=C(c1ccccn1)c1cc(C(=O)N2CCNCC2)cc2cccn12 [II-40, hydrochloride]
39 | 10 to 20 | CCOC(=O)c1cc(C(O)c2ccccc2)n2cccc2c1 (centres unmarked) [II-41]
40 | 10 to 20 | O=C(O)c1cc(C(O)c2ccccc2)n2cccc2c1 (centres unmarked) [II-42]
41 | 10 to 20 | CCNC(=O)c1cc(C(O)c2ccccc2)n2cccc2c1 (centres unmarked) [II-43, N-ethyl-5-(hydroxy(phenyl)methyl) indolizine-7-formamide]
42 | 10 to 20 | CN(C)C(=O)c1cc(C(O)c2ccccc2)n2cccc2c1 (centres unmarked) [II-44, 5-(hydroxy(phenyl)methyl)-N, N-dimethylindolizine-7-formamide]
43 | 10 to 20 | CCN(CC)C(=O)c1cc(C(O)c2ccccc2)n2cccc2c1 (centres unmarked) [II-45, N,N-diethyl-5-(hydroxy(phenyl)methyl) indolizine-7-formamide]
44 | 10 to 20 | CCN(C)C(=O)c1cc(C(O)c2ccccc2)n2cccc2c1 (centres unmarked) [II-46, N-ethyl-5-(hydroxy(phenyl)methyl)-N-methylindolizine-7-formamide]
45 | 10 to 20 | CCCC(=O)OC(c1ccccc1)c1cc(C(=O)OCC)cc2cccn12 (centres unmarked) [II-48]
46 | 10 to 20 | CCN(CC)C(=O)c1cc(C(OC(C)=O)c2ccccc2)n2cccc2c1 (centres unmarked) [II-50]
47 | 20 to 50 | CCCC(=O)OC(c1ccccc1)c1cc(C(=O)N(CC)CC)cc2cccn12 (centres unmarked) [II-51]
48 | 20 to 50 | CCCCCCCC(=O)OC(c1ccccc1)c1cc(C(=O)N(CC)CC)cc2cccn12 (centres unmarked) [II-52]
49 | 1 to 10 | CCOC(=O)c1cc(C(OC)c2ccccc2)n2cccc2c1 (centres unmarked) [II-53]
50 | 10 to 20 | CCCOC(c1ccccc1)c1cc(C(=O)OCC)cc2cccn12 (centres unmarked) [II-54, 5-(Phenyl (Propyloxy) Methylindolizine-7-ethyl carboxylate]
51 | 10 to 20 | COC(=O)c1cc(C(=O)c2ccc(Cl)cc2)n2ccnc2c1 [III-2, 5-(4-chlorobenzoyl) imidazolo [1,2-a]pyridine-7-methyl carboxylate]
52 | 10 to 20 | COC(=O)c1cc(C(=O)c2ccc(C)cc2)n2ccnc2c1 [III-3, 5-(4-methylbenzoyl) imidazolo [1,2-a]pyridine-7-methyl carboxylate]
53 | 10 to 20 | CCOC(=O)c1cc(C(=O)c2ccccc2)n2ccnc2c1 [III-4, 5-benzimidazolo[1,2-a]pyridine-7-ethyl carboxylate]
54 | 10 to 20 | O=C(O)c1cc(C(=O)c2ccccc2)n2ccnc2c1 [III-5, 5-benzimide azo [1,2-a]pyridine-7-carboxylic acid]
55 | 10 to 20 | CN(C)C(=O)c1cc(C(=O)c2ccccc2)n2ccnc2c1 [III-6, 5-Benzoyl-N,N-dimethylimidazole[1,2-a]pyridine-7-formamide]

Row | Compound | IC50 [µM]
56 | CCOC(=O)c1cc(C(OC(C)=O)c2ccccc2)n2cccc2c1 (centres unmarked) [II-47, 5-(acetoxy (phenyl)methyl) indolizine-7-ethyl carboxylate] | 10 to 20
